Where two headings read alike, the source gives them in different places.

The values that follow come from publication PMC4710668, “Bioactivation of food genotoxicants 5-hydroxymethylfurfural and furfuryl alcohol by sulfotransferases from human, mouse and rat: a comparative study” (Archives of Toxicology, 2014).

On the set-up of series [1]: method as in Glatt et al. [2012]. Particulars: in water at 37 °C; ref Glatt et al. [2012]; cited from earlier work.
The nature of series [2]: Stability of SMF in solution. The format is physicochemical. Conditions: solutions containing 75 % 2-propanol at 4 °C, within four weeks. The procedure:
The analytical technique used in this study was adapted from the SMF quantification in plasma samples of HMF-treated mice (Monien et al. [2009]). This is beset with two potential sources of inaccuracy. […] Here, we chose a reaction time of 30 min. […] SMF was analyzed by UPLC-MS/MS in the MRM mode using the specific fragmentation reactions of the sulfate ion radical (m/z = 204.9 → 96.0) and the protonated sulfonate ion (m/z = 204.9 → 81.0) (Monien et al. [2009]). Representative chromatograms are shown in Fig. S2 of the Supplementary Material. The SMF levels resulting from HMF sulfoconjugation were quantified using SMF solutions at various concentrations as external calibration line prepared in water/2-propanol (1:3), which represents the solvent composition in the incubation mixture following instant stopping and precipitating of proteins. The second source of imprecision of mass spectrometric SMF quantification with an external calibration is the possible ion suppression by residues from bacterial cytosol or buffer salts in the samples. This was tested in a separate experiment measuring the peak areas of six series of solutions with five different SMF concentrations, either prepared with water or with the contents of the incubation mixture including 1 mg/ml protein from a cytosolic preparation of native S. typhimurium TA1538.

Details of series [3]: method as in Monien et al. [2009]. Conditions: ref Monien et al. [2009], cited from earlier work.
Another series has as its target T1, hSULT1A1 (Homo sapiens, UniProt P50225).
T1 construct: made in house; host or cells: Salmonella typhimurium TA1538 (cytosolic fraction, not purified)
Particulars: cited from earlier work; for K M of sulfoconjugation: ref Honma et al. [2001].

T1 sequence (P50225 whole entry): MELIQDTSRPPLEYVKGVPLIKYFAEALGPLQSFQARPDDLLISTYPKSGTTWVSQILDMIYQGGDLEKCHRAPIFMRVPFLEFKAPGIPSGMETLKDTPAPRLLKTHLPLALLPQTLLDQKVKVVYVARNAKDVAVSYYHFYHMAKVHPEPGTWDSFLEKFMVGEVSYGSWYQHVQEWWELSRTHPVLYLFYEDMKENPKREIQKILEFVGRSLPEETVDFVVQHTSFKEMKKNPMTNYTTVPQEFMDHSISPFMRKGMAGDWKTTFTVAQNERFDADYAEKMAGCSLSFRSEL

With `O=S(=O)(O)OCc1ccco1` [2-sulfoxymethylfuran], the “t 1/2” value in series [1] was 20 s.
For orientation: half-life means the time needed for the level to fall by half in the phase considered. In the case of `O=Cc1ccc(COS(=O)(=O)O)o1` [SMF, 5-sulfoxymethylfurfural], the stability result in series [2] was “without any detectable degradation”. The half-life in series [3] (in plasma at 37 °C) is 1.8 h; in series [3] (in urine at 37 °C), 2.1 h; in series [3] (in water at 37 °C), 1.9 h.
As for `O=[N+]([O-])c1ccc(O)cc1` [p-nitrophenol], the “K M of sulfoconjugation” value at hSULT1A1 is recorded as 3.0 µM.
Consider `NCCc1ccc(O)c(O)c1` [dopamine], for which the “K M of sulfoconjugation” value at hSULT1A1 is reported as 130 µM.
In the case of `COc1cc2c(CCNC(C)=O)c[nH]c2cc1O` [6-hydroxymelatonin], the “K M of sulfoconjugation” value at hSULT1A1 was 18 µM.
Take `CC(=O)Nc1ccc(O)cc1` [paracetamol]: on hSULT1A1 (ref Adjei et al. [2008]), the “K M of turnover” value is 2400 µM.
